Source: the OligoGym collection
Bases are written 5' to 3'; sugars and linkages follow in the same order, as letters with counts (s phosphorothioate, o phosphodiester; PS: all linkages phosphorothioate). C may stand for cytosine or 5-methylcytosine; the collection does not tell. l = locked nucleic acid (LNA); d = 2'-deoxy (DNA)

What follows are sequences tested against HIF1A (assay: HeLa, 100 nM transfected, 24 h, mean of 3). Conditions: ASO.

Question: For “GTTACTGCCTTCTTAC (sugars l3 d8 l1 d1 l3, PS)”, which caspase activation (% of PBS control) is on record?
Answer: 197

Question: For “GTTACTGCCTTCTTAC (sugars lldlldddddddlddl, PS)”, which caspase activation (% of PBS control) is on record?
Answer: 278

Question: Which caspase activation (% of PBS control) does the source give for “TGGCAAGCATCCTGTA (sugars ldldlddddddddldl, PS)” here?
Answer: 176

Question: “GTTACTGCCTTCTTAC (sugars llldlddddddldddl, PS)” was tested. Which caspase activation (% of PBS control) did it give?
Answer: 272

Question: Which caspase activation (% of PBS control) does the source give for “TACTGCCTTCTTA (sugars ldllddddddldl, PS)” here?
Answer: 317

Question: GTTACTGCCTTCTTAC (sugars l5 d8 l3, PS) was tested. Which caspase activation (% of PBS control) did it give?
Answer: 512

Question: With “TGGCAAGCATCCTGTA (sugars l4 d9 l1 d1 l1, PS)” as the sequence, how does the caspase activation (% of PBS control) read?
Answer: 425

Question: With “TGGCAAGCATCCTGTA (sugars ldldlddddddddlll, PS)” as the sequence, how does the caspase activation (% of PBS control) read?
Answer: 277

Question: “TGGCAAGCATCCTGTA (sugars lldlldddddddlldl, PS)” was tested. Which caspase activation (% of PBS control) did it give?
Answer: 362

Question: “TGGCAAGCATCCTGTA (sugars ldlddddddddlldll, PS)” was tested. Which caspase activation (% of PBS control) did it give?
Answer: 227

Question: TGGCAAGCATCCT (sugars l2 d8 l3, PS) was tested. Which caspase activation (% of PBS control) did it give?
Answer: 315

Question: For “ACTGCCTTCTTAC (sugars l2 d1 l1 d6 l3, PS)”, which caspase activation (% of PBS control) is on record?
Answer: 166

Question: Which caspase activation (% of PBS control) does the source give for “GGCAAGCATCCTG (sugars l2 d8 l1 d1 l1, PS)” here?
Answer: 327

Question: For TACTGCCTTCTTA (sugars l4 d6 l3, PS), which caspase activation (% of PBS control) is on record?
Answer: 404

Question: How did the caspase activation (% of PBS control) turn out when “TGGCAAGCATCCTGTA (sugars l3 d8 l3 d1 l1, PS)” was run?
Answer: 449

Question: With “TGGCAAGCATCCT (sugars l1 d1 l1 d9 l1, PS)” as the sequence, how does the caspase activation (% of PBS control) read?
Answer: 160

Question: Which caspase activation (% of PBS control) does the source give for “GTTACTGCCTTCTTAC (sugars l5 d6 l3 d1 l1, PS)” here?
Answer: 603

Question: Which caspase activation (% of PBS control) does the source give for “GTTACTGCCTTCTTAC (sugars llldldddddddlldl, PS)” here?
Answer: 341

Question: “GTTACTGCCTTCTTAC (sugars llddlddddddldlll, PS)” was tested. Which caspase activation (% of PBS control) did it give?
Answer: 220

Question: How did the caspase activation (% of PBS control) turn out when “GTTACTGCCTTCTTAC (sugars lddldddddddldlll, PS)” was run?
Answer: 154

Question: With “GTTACTGCCTTCTTAC (sugars ldlldddddddddldl, PS)” as the sequence, how does the caspase activation (% of PBS control) read?
Answer: 142

Question: With TGGCAAGCATCCTGTA (sugars l3 d11 l2, PS) as the sequence, how does the caspase activation (% of PBS control) read?
Answer: 314

Question: For “GTTACTGCCTTCTTAC (sugars l1 d10 l3 d1 l1, PS)”, which caspase activation (% of PBS control) is on record?
Answer: 261

Question: For “GTTACTGCCTTCTTAC (sugars l1 d1 l3 d10 l1, PS)”, which caspase activation (% of PBS control) is on record?
Answer: 323

Question: With “CAAGCATCCTGTA (sugars l1 d1 l1 d7 l3, PS)” as the sequence, how does the caspase activation (% of PBS control) read?
Answer: 198

Question: “GTTACTGCCTTCTTAC (sugars l1 d11 l2 d1 l1, PS)” was tested. Which caspase activation (% of PBS control) did it give?
Answer: 137

Question: “GTTACTGCCTTCTTAC (sugars l2 d1 l1 d9 l3, PS)” was tested. Which caspase activation (% of PBS control) did it give?
Answer: 130

Question: For “TGGCAAGCATCCTGTA (sugars l5 d7 l1 d1 l2, PS)”, which caspase activation (% of PBS control) is on record?
Answer: 390

Question: With “GTTACTGCCTTCTTAC (sugars lldllddddddldldl, PS)” as the sequence, how does the caspase activation (% of PBS control) read?
Answer: 294

Question: For “TGGCAAGCATCCTGTA (sugars lldlddddddddlddl, PS)”, which caspase activation (% of PBS control) is on record?
Answer: 604

Question: For “TGGCAAGCATCCTGTA (sugars ldlldddddddllddl, PS)”, which caspase activation (% of PBS control) is on record?
Answer: 360

Question: For “GGCAAGCATCCTG (sugars l2 d1 l1 d7 l2, PS)”, which caspase activation (% of PBS control) is on record?
Answer: 560

Question: “CAAGCATCCTGTA (sugars l4 d6 l1 d1 l1, PS)” was tested. Which caspase activation (% of PBS control) did it give?
Answer: 159

Question: Which caspase activation (% of PBS control) does the source give for CAAGCATCCTGTA (sugars l4 d7 l2, PS) here?
Answer: 212

Question: With “TTACTGCCTTCTT (sugars l1 d9 l1 d1 l1, PS)” as the sequence, how does the caspase activation (% of PBS control) read?
Answer: 127

Question: Which caspase activation (% of PBS control) does the source give for “TTACTGCCTTCTT (sugars l1 d2 l1 d6 l3, PS)” here?
Answer: 131

Question: How did the caspase activation (% of PBS control) turn out when TGGCAAGCATCCTGTA (sugars l4 d7 l5, PS) was run?
Answer: 414

Question: How did the caspase activation (% of PBS control) turn out when “GTTACTGCCTTCTTAC (sugars ldldddddddddlldl, PS)” was run?
Answer: 165

Question: With “TGGCAAGCATCCTGTA (sugars lldlddddddddlldl, PS)” as the sequence, how does the caspase activation (% of PBS control) read?
Answer: 461

Question: “TGGCAAGCATCCTGTA (sugars l1 d11 l1 d2 l1, PS)” was tested. Which caspase activation (% of PBS control) did it give?
Answer: 190

Question: Which caspase activation (% of PBS control) does the source give for “TTACTGCCTTCTT (sugars l2 d1 l1 d6 l3, PS)” here?
Answer: 325

Question: Which caspase activation (% of PBS control) does the source give for “TTACTGCCTTCTT (sugars lldlddddddldl, PS)” here?
Answer: 222

Question: Which caspase activation (% of PBS control) does the source give for “GTTACTGCCTTCTTAC (sugars lldlldddddddldll, PS)” here?
Answer: 293

Question: With “TGGCAAGCATCCT (sugars l1 d1 l2 d8 l1, PS)” as the sequence, how does the caspase activation (% of PBS control) read?
Answer: 327

Question: “TGGCAAGCATCCTGTA (sugars llldldddddddlddl, PS)” was tested. Which caspase activation (% of PBS control) did it give?
Answer: 341

Question: Which caspase activation (% of PBS control) does the source give for GTTACTGCCTTCT (sugars l3 d8 l2, PS) here?
Answer: 164

Question: “GTTACTGCCTTCTTAC (sugars ldldddddddddlddl, PS)” was tested. Which caspase activation (% of PBS control) did it give?
Answer: 118

Question: TACTGCCTTCTTA (sugars l2 d10 l1, PS) was tested. Which caspase activation (% of PBS control) did it give?
Answer: 152

Question: With “GTTACTGCCTTCTTAC (sugars lldldddddddlldll, PS)” as the sequence, how does the caspase activation (% of PBS control) read?
Answer: 163

Question: Which caspase activation (% of PBS control) does the source give for “TGGCAAGCATCCTGTA (sugars ldldldddddddldll, PS)” here?
Answer: 290
